How the values were obtained:
NEP = molecular target: T1, NEP (Rattus norvegicus, UniProt P07861); assay: NEP-inhibitory activity in rat kidney cortex membranes, [3H][Leu5]-enkephaline substrate; format: biochemical; conditions: [3H][Leu5]-enkephaline 15 nM, 20 minutes at 30° C., pH 7.4, compounds of formula I tested as lithium salts
T1 construct: evaluated in rat kidney cortex membranes; from tissue; host or cells: kidney cortex membranes of male Sprague-Dawley rats
T1 sequence (P07861 1-750): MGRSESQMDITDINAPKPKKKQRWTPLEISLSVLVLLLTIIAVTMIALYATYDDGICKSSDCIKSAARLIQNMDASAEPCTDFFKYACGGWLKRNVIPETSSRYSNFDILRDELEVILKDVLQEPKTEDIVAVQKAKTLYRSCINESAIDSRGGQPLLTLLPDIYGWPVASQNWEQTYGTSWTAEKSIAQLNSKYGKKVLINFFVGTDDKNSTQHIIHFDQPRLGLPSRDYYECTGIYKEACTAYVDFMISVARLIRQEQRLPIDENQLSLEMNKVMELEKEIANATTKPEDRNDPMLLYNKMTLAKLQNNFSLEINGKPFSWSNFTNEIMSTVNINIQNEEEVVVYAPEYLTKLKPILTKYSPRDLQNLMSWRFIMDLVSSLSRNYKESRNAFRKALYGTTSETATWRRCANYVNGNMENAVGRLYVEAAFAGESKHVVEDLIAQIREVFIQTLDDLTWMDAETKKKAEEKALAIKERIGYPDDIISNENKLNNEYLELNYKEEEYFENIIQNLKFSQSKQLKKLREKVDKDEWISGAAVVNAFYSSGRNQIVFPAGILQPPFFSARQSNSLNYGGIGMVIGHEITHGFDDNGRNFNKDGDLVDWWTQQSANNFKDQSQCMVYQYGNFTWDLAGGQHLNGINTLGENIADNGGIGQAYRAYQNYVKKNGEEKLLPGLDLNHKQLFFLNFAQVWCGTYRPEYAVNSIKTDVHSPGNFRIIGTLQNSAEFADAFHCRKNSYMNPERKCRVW
Protocol: a) NEP-inhibitory activity
The NEP-inhibitory activity was evaluated in rat kidney cortex membranes prepared according to the procedure described by T. Maeda et al. in Biochim biophys. Acta 1983, 731 (1), 115-120.
By working at 0°-4° C. kidneys were removed from male Sprague-Dawley rats weighing approximately 300 g.
Kidney cortex was carefully dissected, finely minced and suspended in a homogenization buffer (10 mM sodium phosphate pH 7.4 containing 1 mM MgCl2, 30 mM NaCl, 0.02% NaN3) 1:15 weight/volume.
The tissue was then homogenized for 30 seconds by using an Ultra-Turrax homogenizer.
Approximately 10 ml of homogenate were layered over 10 ml of sucrose (41% weight/volume) and centrifuged at 31200 rpm for 30 minutes at 4° C. in a fixed angle rotor.
The membranes were collected from the buffer/sucrose interface, washed twice with 50 mM TRIS/HCl buffer (pH 7.4) and resuspended into the same buffer for storage.
The membranes were stored in small aliquots at -80° C. until use.
The NEP-inhibitory activity was evaluated according to the method described by C. Llorens et al., in Eur. I. Pharmacol., 69, (1981), 113-116, as reported hereinafter.
Aliquots of the membrane suspension prepared as above described (concentration 5 μg/ml of proteins) were preincubated in the presence of an aminopeptidase inhibitor (Bestatin--1 mM) for 10 minutes at 30° C.
[^3 H][Leu^5 ]-enkephaline (15 nM) and buffer TRIS/HCl pH 7.4 (50 mM) were added in order to obtain a final volume of 100 μl.
Incubation (20 minutes at 30° C.) was stopped by adding HCl 0.1 M (100 μl).
The formation of the metabolite [^3 H]Tyr-Gly-Gly was quantified, after separation of the unreacted substrate by chromatography on polystirene columns (Porapak Q), by measuring the relative radioactivity through liquid scintillation.
The percentage of inhibition of the metabolite formation in the membrane preparations treated with the compounds of formula I and with the comparative compounds with respect to the untreated membrane preparations was expressed as IC50 (nM) value.
(§1) The compounds of formula I were tested in the form of lithium salts.

ACE = molecular target: T2, ACE (Oryctolagus cuniculus, UniProt P12822); assay: ACE-inhibitory activity, FAPGG substrate, absorbance at 340 nm; format: biochemical; conditions: ACE purified by lung rabbit; FAPGG 0.8 mM; 37° C.; compounds of formula I tested as lithium salts
T2 construct: purchased SIGMA; host or cells: rabbit lung
T2 sequence (P12822 34-1310): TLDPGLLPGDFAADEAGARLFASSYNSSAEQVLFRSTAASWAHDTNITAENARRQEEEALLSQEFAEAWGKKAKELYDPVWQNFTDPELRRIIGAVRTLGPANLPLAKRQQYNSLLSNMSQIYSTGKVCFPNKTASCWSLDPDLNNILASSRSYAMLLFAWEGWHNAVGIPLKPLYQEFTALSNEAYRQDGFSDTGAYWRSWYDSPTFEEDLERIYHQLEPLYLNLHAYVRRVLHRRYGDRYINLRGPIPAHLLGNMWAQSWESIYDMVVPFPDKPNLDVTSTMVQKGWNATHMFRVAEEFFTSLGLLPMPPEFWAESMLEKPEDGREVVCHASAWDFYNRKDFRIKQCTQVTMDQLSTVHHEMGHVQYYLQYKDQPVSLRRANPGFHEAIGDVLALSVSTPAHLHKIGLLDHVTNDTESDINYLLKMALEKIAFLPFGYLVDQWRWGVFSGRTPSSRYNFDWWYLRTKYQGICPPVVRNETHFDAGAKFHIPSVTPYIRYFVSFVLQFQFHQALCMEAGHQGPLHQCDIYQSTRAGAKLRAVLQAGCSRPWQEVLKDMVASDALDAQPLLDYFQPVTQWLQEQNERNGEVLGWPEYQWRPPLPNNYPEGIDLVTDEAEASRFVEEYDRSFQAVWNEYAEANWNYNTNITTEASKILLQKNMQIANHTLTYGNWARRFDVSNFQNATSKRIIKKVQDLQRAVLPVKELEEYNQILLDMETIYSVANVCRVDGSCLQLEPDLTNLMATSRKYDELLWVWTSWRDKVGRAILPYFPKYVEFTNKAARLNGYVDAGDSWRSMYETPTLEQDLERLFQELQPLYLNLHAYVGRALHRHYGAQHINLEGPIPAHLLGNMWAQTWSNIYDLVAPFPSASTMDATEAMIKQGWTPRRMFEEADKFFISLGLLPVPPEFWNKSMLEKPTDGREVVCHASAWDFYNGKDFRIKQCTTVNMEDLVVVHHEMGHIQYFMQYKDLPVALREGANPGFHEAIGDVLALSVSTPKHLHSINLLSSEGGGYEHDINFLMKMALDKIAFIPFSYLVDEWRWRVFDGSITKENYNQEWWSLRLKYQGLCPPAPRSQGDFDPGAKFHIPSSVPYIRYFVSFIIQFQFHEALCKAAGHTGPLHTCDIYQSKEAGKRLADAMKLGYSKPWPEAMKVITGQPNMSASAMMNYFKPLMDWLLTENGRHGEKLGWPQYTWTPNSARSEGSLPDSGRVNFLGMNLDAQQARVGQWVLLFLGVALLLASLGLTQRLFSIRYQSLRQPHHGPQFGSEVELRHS
Protocol: b) ACE-inhibitory activity
50 μM of ACE (250 mU/ml purified by lung rabbit, EC 3.4.15.1 SIGMA) were preincubated with 50 μl of the compound of formula I or of the comparison compound in thermostated cuvettes at 37° C.
The reaction was started by adding furylacryloylphenylalanylglycylglycine 0.8 mM (FAPGG-SIGMA).
Contemporaneously, by using a Beckman DU-50 spectrophotometer provided with a program for calculating delta A/minutes and regression coefficients of the enzyme kinetics curves, the absorbance at 340 10^-9 m was recorded in continuo for 5 minutes.
The percentage of enzyme inhibition in the preparations treated with the compounds of formula I or with the comparison compounds with respect to the untreated preparations was expressed as IC50 (nM) value.
as §1

| SMILES | IC50 (NEP) [nM] | ACE-inhibitory activity IC50 (nM) (ACE) | NEP-inhibitory activity IC50 (nM) (NEP) | IC50 (ACE) [nM] |
| --- | --- | --- | --- | --- |
| COCCOCC(CC1(C(=O)N[C@H]2CC[C@@H](C(=O)O)CC2)CCCC1)C(=O)O (relative stereo) [Candoxatrilat, 3-[1-[(Cis-4-carboxycyclohexyl)carbamoyl]cyclopentyl]-2-(2-methoxyethoxymethyl)-propionic acid, reference compound] | 160 | not active |  |  |
| C[C@H](CS)C(=O)N1CCC[C@H]1C(=O)O [Captopril, reference compound] |  |  | not active |  |
| O=C(NCP(=O)(O)CC(Cc1ccccc1)C(=O)N[C@@H](Cc1ccc(-c2ccccc2)cc1)C(=O)O)OCc1ccccc1 (stereo partly drawn) [Compound 3, N-[3-[(benzyloxycarbonylaminomethyl)(hydroxy)phosphinyl]-2-benzyl-propionyl]-(1,1'-biphenyl-4-yl)-L-alanine] | 252 |  |  | 30 |
| O=C(NCP(=O)(O)CC(Cc1cccs1)C(=O)N[C@@H](Cc1ccc(-c2ccccc2)cc1)C(=O)O)OCc1ccccc1 (stereo partly drawn) [Compound 4, N-[3-[(benzyloxycarbonylaminomethyl)(hydroxy)phosphinyl]-2-(2-thienylmethyl)propionyl]-(1,1'-biphenyl-4-yl)-L-alanine] | 335 |  |  | 12 |

The remaining molecules from weak to strong by IC50 (NEP), led by results:

| IC50 (NEP) [nM] | ACE-inhibitory activity IC50 (nM) (ACE) | NEP-inhibitory activity IC50 (nM) (NEP) | IC50 (ACE) [nM] | SMILES |
| --- | --- | --- | --- | --- |
| 48.5 |  |  | 25 | CC(C)CC(CP(=O)(O)CNC(=O)OCc1ccccc1)C(=O)N[C@@H](Cc1ccc(-c2nccs2)cc1)C(=O)O (stereo partly drawn) [Compound 5, N-[3-[(benzyloxycarbonylaminomethyl)(hydroxy)phosphinyl]-2-isobutyl-propionyl]-[4-(2-thiazolyl)-phenyl]-L-alanine] |
| 36 |  |  | 6.4 | CC(C)CC(CP(=O)(O)CNC(=O)OCc1ccccc1)C(=O)N[C@@H](Cc1ccc(-c2ccccc2)cc1)C(=O)O (stereo partly drawn) [Compound 2, N-[3-[(benzyloxycarbonylaminomethyl)(hydroxy)phosphinyl]-2-isobutyl-propionyl]-(1,1'-biphenyl-4-yl)-L-alanine] |

Reference: US5716943A, “Phosphinic acid derivatives with metallopeptidase inhibitory activity” (Zambon Group. S.p.A., priority 1995, dated 1998)
